Data taken from patent US20230257372A1 (CHONG KUN DANG PHARMACEUTICAL CORP., priority 2020, published 2023).

Key:
human recombinant HDAC1 = molecular target: T1, human recombinant HDAC1 (Homo sapiens, UniProt Q13547); test: HDAC1 enzyme activity inhibition (HDAC Fluorimetric Drug Discovery Kit); assay type: biochemical; settings: human recombinant HDAC1, Fluor de Lys substrate, 30° C. 60 minutes; read-out: HDAC1
T1 construct: purchased Enzo Life Science, Inc. BML-SE456
How it was run: (§1)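 Fluorimetric deacetylase read-out: after 30 min with Developer II following a 60 min, 30° C reaction of recombinant enzyme ([…]) with 10 μM substrate, across five-fold serial compound dilutions.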

human recombinant HDAC6 = molecular target: T2, human recombinant HDAC6 (Homo sapiens, UniProt Q9UBN7); test: HDAC6 enzyme activity inhibition (HDAC Fluorimetric Drug Discovery Kit); assay type: biochemical; settings: for HDAC6 selectivity (fold): HDAC6 over HDAC1; for IC50: human recombinant HDAC6, same protocol as HDAC1
T2 construct: purchased Calbiochem Inc. 382180
T2 sequence (Q9UBN7 1-1215): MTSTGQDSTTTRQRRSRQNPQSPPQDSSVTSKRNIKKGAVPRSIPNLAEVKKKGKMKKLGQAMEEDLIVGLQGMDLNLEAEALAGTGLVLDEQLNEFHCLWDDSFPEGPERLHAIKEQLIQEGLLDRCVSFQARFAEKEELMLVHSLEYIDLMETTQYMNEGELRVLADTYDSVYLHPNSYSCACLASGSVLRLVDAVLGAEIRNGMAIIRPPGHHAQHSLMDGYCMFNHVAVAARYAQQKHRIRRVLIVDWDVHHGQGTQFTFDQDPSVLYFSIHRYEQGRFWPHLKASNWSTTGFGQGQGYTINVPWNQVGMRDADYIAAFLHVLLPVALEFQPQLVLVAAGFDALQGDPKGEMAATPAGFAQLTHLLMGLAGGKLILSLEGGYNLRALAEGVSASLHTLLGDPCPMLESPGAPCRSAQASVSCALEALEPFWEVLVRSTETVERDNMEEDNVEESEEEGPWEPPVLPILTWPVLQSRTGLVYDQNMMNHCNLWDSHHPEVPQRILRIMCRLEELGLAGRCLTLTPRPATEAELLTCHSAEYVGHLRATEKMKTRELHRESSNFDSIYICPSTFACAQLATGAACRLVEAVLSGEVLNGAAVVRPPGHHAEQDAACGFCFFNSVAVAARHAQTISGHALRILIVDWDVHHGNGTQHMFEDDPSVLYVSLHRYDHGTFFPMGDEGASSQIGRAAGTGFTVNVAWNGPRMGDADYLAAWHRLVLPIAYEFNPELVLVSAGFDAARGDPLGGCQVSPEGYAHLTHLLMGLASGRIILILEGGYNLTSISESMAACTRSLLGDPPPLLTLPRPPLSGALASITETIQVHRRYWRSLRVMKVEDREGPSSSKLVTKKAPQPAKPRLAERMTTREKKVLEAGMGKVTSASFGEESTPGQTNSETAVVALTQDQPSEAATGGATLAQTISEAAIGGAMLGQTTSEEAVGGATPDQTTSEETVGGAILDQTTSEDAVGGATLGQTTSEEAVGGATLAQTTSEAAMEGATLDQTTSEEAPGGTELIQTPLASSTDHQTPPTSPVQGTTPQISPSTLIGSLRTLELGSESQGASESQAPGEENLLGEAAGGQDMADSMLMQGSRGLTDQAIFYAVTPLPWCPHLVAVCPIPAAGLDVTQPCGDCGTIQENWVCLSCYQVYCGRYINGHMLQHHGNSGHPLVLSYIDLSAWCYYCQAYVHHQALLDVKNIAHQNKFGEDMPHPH
How it was run: as §1

T1 sequence (Q13547 whole entry): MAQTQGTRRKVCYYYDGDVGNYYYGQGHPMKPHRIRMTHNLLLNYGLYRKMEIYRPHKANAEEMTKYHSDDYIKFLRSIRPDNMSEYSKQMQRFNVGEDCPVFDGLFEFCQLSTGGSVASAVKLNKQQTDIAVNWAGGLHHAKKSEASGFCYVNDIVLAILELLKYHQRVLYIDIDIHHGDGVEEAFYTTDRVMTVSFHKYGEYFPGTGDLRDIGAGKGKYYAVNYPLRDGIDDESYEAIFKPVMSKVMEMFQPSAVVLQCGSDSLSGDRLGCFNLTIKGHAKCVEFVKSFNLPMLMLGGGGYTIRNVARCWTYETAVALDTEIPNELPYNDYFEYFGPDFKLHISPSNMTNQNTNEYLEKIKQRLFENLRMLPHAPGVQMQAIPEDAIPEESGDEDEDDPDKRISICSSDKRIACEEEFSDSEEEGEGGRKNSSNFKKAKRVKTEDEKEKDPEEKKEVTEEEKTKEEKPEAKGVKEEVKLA

Compound | IC50 (human recombinant HDAC1) [µM] | HDAC6 selectivity (fold) (human recombinant HDAC6) | IC50 (human recombinant HDAC6) [nM]
CN(C)C1CCN(Cc2ccc(-c3cn(Cc4ccc(-c5nnc(C(F)F)o5)cn4)nn3)cc2)CC1 [Compound 4564, 1-(4-(1-((5-(5-(difluoromethyl)-1,3,4-oxadiazol-2-yl)pyridin-2-yl)methyl)-1H-1,2,3-triazol-4-yl)benzyl)-N,N-dimethylpiperidin-4-amine] | > 50 | 2358 | 21.2
FC(F)c1nnc(-c2ccc(Cn3cc(-c4ccc(CNC5CCC5)cc4)nn3)nc2)o1 [Compound 4565, N-(4-(1-((5-(5-(difluoromethyl)-1,3,4-oxadiazol-2-yl)pyridin-2-yl)methyl)-1H-1,2,3-triazol-4-yl)benzyl)cyclobutanamine] | > 50 | 6024 | 8.3
FC(F)c1nnc(-c2ccc(Cn3cc(-c4ccc(CNC5COC5)cc4)nn3)nc2)o1 [Compound 4566, N-(4-(1-((5-(5-(difluoromethyl)-1,3,4-oxadiazol-2-yl)pyridin-2-yl)methyl)-1H-1,2,3-triazol-4-yl)benzyl)oxetan-3-amine] | > 50 | 1256 | 39.8
CN1CC(NCc2ccc(-c3cn(Cc4ccc(-c5nnc(C(F)F)o5)cn4)nn3)cc2)C1 [Compound 4567, N-(4-(1-((5-(5-(difluoromethyl)-1,3,4-oxadiazol-2-yl)pyridin-2-yl)methyl)-1H-1,2,3-triazol-4-yl)benzyl)-1-methylazetidin-3-amine] | > 50 | 1333 | 37.5
CN1CCN(c2cccc(-c3cn(Cc4ccc(-c5nnc(C(F)F)o5)cn4)nn3)c2F)CC1 [Compound 4569, 2-(difluoromethyl)-5-(6-((4-(2-fluoro-3-(4-methylpiperazin-1-yl)phenyl)-1H-1,2,3-triazol-1-yl)methyl)pyridin-3-yl)-1,3,4-oxadiazole] | > 50 | 3649 | 13.7
CCN1CCN(c2cccc(-c3cn(Cc4ccc(-c5nnc(C(F)F)o5)cn4)nn3)c2F)CC1 [Compound 4570, 2-(difluoromethyl)-5-(6-((4-(3-(4-ethylpiperazin-1-yl)-2-fluorophenyl)-1H-1,2,3-triazol-1-yl)methyl)pyridin-3-yl)-1,3,4-oxadiazole] | > 50 | 2475 | 20.2
CC(C)N1CCN(c2cccc(-c3cn(Cc4ccc(-c5nnc(C(F)F)o5)cn4)nn3)c2F)CC1 [Compound 4571, 2-(difluoromethyl)-5-(6-((4-(2-fluoro-3-(4-isopropylpiperazin-1-yl)phenyl)-1H-1,2,3-triazol-1-yl)methyl)pyridin-3-yl)-1,3,4-oxadiazole] | > 50 | 2732 | 18.3
Fc1c(-c2cn(Cc3ccc(-c4nnc(C(F)F)o4)cn3)nn2)cccc1N1CCN(C2CCC2)CC1 [Compound 4572, 2-(6-((4-(3-(4-cyclobutylpiperazin-1-yl)-2-fluorophenyl)-1H-1,2,3-triazol-1-yl)methyl)pyridin-3-yl)-5-(difluoromethyl)-1,3,4-oxadiazole] | > 50 | 2564 | 19.5
Fc1c(-c2cn(Cc3ccc(-c4nnc(C(F)F)o4)cn3)nn2)cccc1N1CCN(C2COC2)CC1 [Compound 4573, 2-(difluoromethyl)-5-(6-((4-(2-fluoro-3-(4-(oxetan-3-yl)piperazin-1-yl)phenyl)-1H-1,2,3-triazol-1-yl)methyl)pyridin-3-yl)-1,3,4-oxadiazole] | > 50 | 2314 | 21.6
CN1CCN(c2cccc(-c3cn(Cc4ccc(-c5nnc(C(F)F)o5)cc4F)nn3)c2F)CC1 [Compound 4576, 2-(difluoromethyl)-5-(3-fluoro-4-((4-(2-fluoro-3-(4-methylpiperazin-1-yl)phenyl)-1H-1,2,3-triazol-1-yl)methyl)phenyl)-1,3,4-oxadiazol] | > 50 | 2857 | 17.5
CCN1CCN(c2cccc(-c3cn(Cc4ccc(-c5nnc(C(F)F)o5)cc4F)nn3)c2F)CC1 [Compound 4577, 2-(difluoromethyl)-5-(4-((4-(3-(4-ethylpiperazin-1-yl)-2-fluorophenyl)-1H-1,2,3-triazol-1-yl)methyl)-3-fluorophenyl)-1,3,4-oxadiazole] | > 50 | 2688 | 18.6
CC(C)N1CCN(c2cccc(-c3cn(Cc4ccc(-c5nnc(C(F)F)o5)cc4F)nn3)c2F)CC1 [Compound 4578] | > 50 | 1923 | 26
Fc1cc(-c2nnc(C(F)F)o2)ccc1Cn1cc(-c2cccc(N3CCN(C4CCC4)CC3)c2F)nn1 [Compound 4579, 2-(4-((4-(3-(4-cyclobutylpiperazin-1-yl)-2-fluorophenyl)-1H-1,2,3-triazol-1-yl)methyl)-3-fluorophenyl)-5-(difluoromethyl)-1,3,4-oxadiazole] | > 50 | 1256 | 39.8
Fc1cc(-c2nnc(C(F)F)o2)ccc1Cn1cc(-c2cccc(N3CCN(C4COC4)CC3)c2F)nn1 [Compound 4580] | > 50 | 1908 | 26.2
CN1CCN(c2cc(-c3cn(Cc4ccc(-c5nnc(C(F)F)o5)cn4)nn3)ccn2)CC1 [Compound 4582, 2-(difluoromethyl)-5-(6-((4-(2-(4-methylpiperazin-1-yl)pyridin-4-yl)-1H-1,2,3-triazol-1-yl)methyl)pyridin-3-yl)-1,3,4-oxadiazole] | > 50 | 2283 | 21.9
Fc1cc(-c2nnc(C(F)F)o2)ccc1Cn1cc(-c2ccccc2CN2CCC2)nn1 [Compound 4583, 2-(4-((4-(2-(azetidin-1-ylmethyl)phenyl)-1H-1,2,3-triazol-1-yl)methyl)-3-fluorophenyl)-5-(difluoromethyl)-1,3,4-oxadiazole] | > 50 | 138 | 360
Fc1cc(-c2nnc(C(F)F)o2)ccc1Cn1cc(-c2ccccc2CN2CCCC2)nn1 [Compound 4585, 2-(difluoromethyl)-5-(3-fluoro-4-((4-(2-(pyrrolidin-1-ylmethyl)phenyl)-1H-1,2,3-triazol-1-yl)methyl)phenyl)-1,3,4-oxadiazole] | > 50 | 237 | 210
Fc1cc(-c2nnc(C(F)F)o2)ccc1Cn1cc(-c2ccccc2CN2CC3(COC3)C2)nn1 [Compound 4586, 6-(2-(1-(4-(5-(difluoromethyl)-1,3,4-oxadiazol-2-yl)-2-fluorobenzyl)-1H-1,2,3-triazol-4-yl)benzyl)-2-oxa-6-azaspiro[3.3]heptane] | > 50 | 225 | 222
CN1CCN(Cc2ccccc2-c2cn(Cc3ccc(-c4nnc(C(F)F)o4)cc3F)nn2)CC1 [Compound 4587, 2-(difluoromethyl)-5-(3-fluoro-4-((4-(2-((4-methylpiperazin-1-yl)methyl)phenyl)-1H-1,2,3-triazol-1-yl)methyl)phenyl)-1,3,4-oxadiazole] | > 50 | 274 | 182
CCN1CCN(Cc2ccccc2-c2cn(Cc3ccc(-c4nnc(C(F)F)o4)cc3F)nn2)CC1 [Compound 4588, 2-(difluoromethyl)-5-(4-((4-(2-((4-ethylpiperazin-1-yl)methyl)phenyl)-1H-1,2,3-triazol-1-yl)methyl)-3-fluorophenyl)-1,3,4-oxadiazole] | > 50 | 229 | 218
Fc1cc(-c2nnc(C(F)F)o2)ccc1Cn1cc(-c2ccccc2CNC2CCC2)nn1 [Compound 4589, N-(2-(1-(4-(5-(difluoromethyl)-1,3,4-oxadiazol-2-yl)-2-fluorobenzyl)-1H-1,2,3-triazol-4-yl)benzyl)cyclobutanamine] | > 50 | 172 | 290
